The subject of test [1] is DNA synthesis in S. aureus ATCC 29213. The test can be described thus: Macromolecular synthesis assay: DNA synthesis ([3H] thymidine). Type of test: cell-based, Staphylococcus aureus. The note with it: control; 8 fold the MIC (0.5 μg/mL). How it is done:
(§1) Cells were grown at 35° C. overnight on Trypticase Soy agar. A colony from the plate was used to inoculate 10 ml of Mueller Hinton broth II (MHBII), and the culture was grown to early exponential growth phase (OD600==0.2 to 0.3) while incubating in a shaker at 35° C. and 200 rpm.
When cells reached early exponential phase, 100 μL of culture was added to triplicate wells containing various concentrations of test compound or control antibiotics (5 μL) at 20× the final concentration in 100% DMSO. A 5% DMSO treated culture served as the “no drug” control for all experiments. Cells were added in MHBII at 105% to account for the volume of drug added to each reaction or in M9 minimal medium for protein synthesis reactions. Following 15 min incubation at room temperature, either [^3H] thymidine (DNA synthesis), [^3H] uridine (RNA synthesis) or [^3H] leucine (protein synthesis) was added at 0.5-1.0 μCi per reaction, depending on the experiment. Reactions were allowed to proceed at room temperature for 15-30 min and then stopped by adding 12 μL of cold 5% trichloroacetic acid (TCA) or 5% TCA/2% casamino acids (protein synthesis only). Reactions were incubated on ice for 30 min and the TCA precipitated material was collected on a 25 mm GF/A filter. After washing three times with 5 ml of cold 5% TCA, the filters were rinsed two times with 5 mL 100% ethanol, allowed to dry, and then counted using a Beckman LS3801 liquid scintillation counter.

Test [2] deals with Staphylococcus aureus T3-129 / Staphylococcus spp. MK1. The test is described as follows: Synergy studies, checkerboard method (FIC index). Type of test: cell-based. The note with it: Staphylococcus spp. Strain MK1.
The test system of test [3] is MRSA. The test can be described thus: Broth microdilution MIC, Example 7 (NCL812 and analogues). Type of test: cell-based, Staphylococcus aureus. An outline of the steps:
(§2)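 CLSI broth microdilution against two MRSA and two VRE strains, tested in duplicate with a third run if results differed by more than one two-fold dilution.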
Background: Dilution methods test growth across graded concentrations, often in twofold steps.

Test [4] deals with VRE. Described as above. The class given is cell-based, Enterococcus spp. The gist of the method: as §2
Test [5] concerns Gram-negative bacteria (E. coli and Pseudomonas aeruginosa). The test can be described thus: Testing of NCL812 analogues, Gram-negative antibacterial activity. The class given is cell-based. The note with it: MIC testing. How it is done:
Minimum inhibitory concentrations (μg/ml) were determined using the broth microdilution method recommended by the Clinical and Laboratory Standards Institute (CLSI). MIC breakpoints were determined by visual assessment and then confirmed using an ELISA plate reader, measuring absorbance levels at 600 nm. Bacterial growth (turbidity) in the wells with antimicrobial was compared with the amount of growth (turbidity) in the growth-control well (containing no antimicrobial). All isolates were tested in duplicate, if there was a difference of greater than one two-fold dilution in the results, the test was repeated a third time. The purity of the isolates was closely monitored during testing by subculturing the prepared bacterial inoculum onto SBA (sheep blood agar). The MICs of the control strains for the antimicrobial ampicillin were determined for each testing run as an internal quality control. The MIC50, […] and MIC range (minimum and maximum) were calculated for each of the bacterial groups.
MICs were determined against two MRSA strains, two VRE strains and one strain each of E. coli and Pseudomonas aeruginosa.

Test [6] in a line: Bioassay ranking of the analogues tested. To be noted: M + R (MRSA and VRE combined).
Test [7] concerns cell wall synthesis in S. aureus ATCC 29213. The test is described as follows: Macromolecular synthesis assay: cell wall synthesis ([14C]N-acetylglucosamine). The class given is cell-based, Staphylococcus aureus. To be noted: positive control; 8 fold the MIC (2 μg/mL). The protocol: as §1
Bacterial cells in early exponential growth phase were transferred to M9 minimal medium and added to 1.5 mL eppendorf tubes (100 μL/tube) containing various concentrations of test compound or control antibiotics (5 μL) at 20× the final concentration in 100% DMSO as described above. Following a 5 min incubation at 37° C., [^14C]N-acetylglucosamine (0.4 μCi/reaction) was added to each tube and incubated for 45 min in a 37° C. heating block. Reactions were stopped through the addition of 100 μL of 8% SDS to each tube. Reactions were then heated at 95° C. for 30 min in a heating block, cooled, briefly centrifuged, and spotted onto pre-wet HA filters ([…]). After washing three times with 5 mL of 0.1% SDS, the filters were rinsed two times with 5 ml of deionized water, allowed to dry, and then counted using a Beckman LS3801 liquid scintillation counter.

Test [8] relates to S. aureus isolates (HA-MRSA, CA-MRSA, methicillin-susceptible staphylococci). The test is described as follows: Kirby-Bauer disc diffusion resistotyping, Example 4. The class given is cell-based, Staphylococcus aureus. To be noted: for Total isolates resistant (Kirby-Bauer disc diffusion): all isolates (n = 30). An outline of the steps: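 CLSI Kirby-Bauer disc diffusion on Mueller-Hinton agar. Overnight SBA cultures (37 °C) were suspended in saline and adjusted to 0.5 McFarland before spreading. Antibiotic discs were read after 24 h at 37 °C.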

Test [9] deals with S. pneumoniae isolates. The test can be described thus: Disk diffusion susceptibility (CLSI/EUCAST), Example 5. The class given is cell-based, Streptococcus pneumoniae. An outline of the steps:
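Susceptibility to 12 antimicrobials was categorised (S/I/R) using CLSI breakpoints from zones of complete inhibition, read thrice to the nearest millimetre with the mode taken. Incubation was 16–24 h, 37 °C, 5% CO2.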

Test [10] deals with Staphylococcus pseudintermedius isolates (MSSP and MRSP). The test is described as follows: Disk diffusion and Epsilometer susceptibility testing, Example 6. To be noted: 13 MRSP isolates. The class given is cell-based.

Values joined by “and” are separate entries in the source; they are usually repeats but may differ in a detail not shown here. Identical values can stand only once.

The text below walks through data of patent publication US10253002B2, “Compounds and methods of treating infections” (Neoculi Pty Ltd., priority 2013, dated 2019).

On to `O=C(O)c1cn(C2CC2)c2cc(N3CCNCC3)c(F)cc2c1=O` [Ciprofloxacin], for which the “inhibition of DNA synthesis” value in test [1] was “approximately 51%”. Further, the FICI in test [2] (FIC index of antibiotic with NCL812) was 0.75 and 0.525 and 0.625 and 0.562. The “Antibiotic MIC Alone” value in [2] (antibiotic alone) is 0.125 µg/mL and 0.25 µg/mL. Moreover, the “Result (interaction with NCL812)” value in [2] (antibiotic with NCL812) was “NE (No effect (NE) was defined as 0.5<FICI<4)”.

Take `CCCC/C(=N\NC(=N)N)c1ccc(Cl)cc1.Cl` [NCL188, (E)-2-(1-(4-chlorophenyl)pentylidene)hydrazine-1-carboximidamide Hydrochloride]: in test [3] (MIC testing, two MRSA strains), the “activity against MRSA among analogues” value is on record as “greatest activity”. In addition, the MIC worked out at 16 µg/mL in test [3] (Staphylococcus aureus, MRSA, bioassay ranking, MRSA, read-out: MRSA) and 16 µg/mL in test [4] (Enterococcus, VRE, bioassay ranking, VRE, read-out: VRE). Moreover, in test [4] (MIC testing, two VRE strains), the “activity against VRE among analogues” value is reported as “greatest activity”. The “level of Gram-negative antibacterial activity among analogues” value in test [5] was “highest level of Gram-negative antibacterial activity”. Also, the “M + R” value in test [6] is 16 µg/mL.

For `CN[C@H](CC(C)C)C(=O)N[C@H]1C(=O)N[C@@H](CC(N)=O)C(=O)N[C@H]2C(=O)N[C@H]3C(=O)N[C@H](C(=O)N[C@H](C(=O)O)c4cc(O)cc(O)c4-c4cc3ccc4O)[C@H](O)c3ccc(c(Cl)c3)Oc3cc2cc(c3O[C@@H]2O[C@H](CO)[C@@H](O)[C@H](O)[C@H]2O[C@H]2C[C@](C)(N)[C@H](O)[C@H](C)O2)Oc2ccc(cc2Cl)[C@H]1O` [Vancomycin], the “inhibition of cell wall synthesis” value in [7] is 96%. The “isolates resistant (Kirby-Bauer disc diffusion)” value in [8] (CA-MRSA (n = 10)), in [8] (HA-MRSA (n = 10)) and in test [8] (Methicillin-susceptible staphylococci (n = 10)) was 0.00% each time. Further, the “Total isolates resistant (Kirby-Bauer disc diffusion)” value in test [8] is reported as 0.00%; in test [8] (listed as vancomycin) it was “None of the isolates tested were vancomycin resistant”. For the same compound, the “disk diffusion zone diameter” value was 25 mm in test [9] (A66.1); 22 mm in test [9] (D39); 22 mm in test [9] (EF3030); 23 mm in test [9] (L82016); 21 mm in test [9] (P9); 21 mm in test [9] (P21). Further, the “disk diffusion zone diameter” value turned out to be 22 mm in test [9] (TIGR4); 23 mm in test [9] (WCH16); 20 mm in test [9] (WCH43); 21 mm in test [9] (WCH46); 28 mm in [9] (WCH57); 24 mm in test [9] (WCH77). The “disk diffusion zone diameter” value came out at 22 mm in test [9] (WCH86); 25 mm in [9] (WCH89); 22 mm in test [9] (WCH92); 24 mm in test [9] (WCH137); 22 mm in test [9] (WCH158); 23 mm in test [9] (WCH184). Also, the results for the “disk diffusion zone diameter” value in test [9] (WCH211) and in test [9] (WU2) were 23 mm and 21 mm, respectively. In addition, the MRSP isolates susceptible in [10] was determined as 77%.
